# Source: article PMC6899670 (The Febs Journal, 2019)
# Where two headings read alike, the source gives them in different places.
# Legend:
# [1] = target: T1, BpDdl (Burkholderia pseudomallei D-alanine-D-alanine ligase) (Burkholderia pseudomallei, UniProt Q63QJ9); experiment: biochemical
# T1 construct: gene ddl
# [2] = target: T1, BpDdl (Burkholderia pseudomallei D-alanine-D-alanine ligase); experiment: biochemical; remark: listed apart in the source
# [3] = target: T1, BpDdl (Burkholderia pseudomallei D-alanine-D-alanine ligase); conditions: substrate inhibition at high ATP; 10 mM D-Ala, pH 8, 10 mM MgCl2, 100 mM KCl, 30 °C; enzyme co-purified with AMP
# T1 sequence (Q63QJ9 whole entry, looked up): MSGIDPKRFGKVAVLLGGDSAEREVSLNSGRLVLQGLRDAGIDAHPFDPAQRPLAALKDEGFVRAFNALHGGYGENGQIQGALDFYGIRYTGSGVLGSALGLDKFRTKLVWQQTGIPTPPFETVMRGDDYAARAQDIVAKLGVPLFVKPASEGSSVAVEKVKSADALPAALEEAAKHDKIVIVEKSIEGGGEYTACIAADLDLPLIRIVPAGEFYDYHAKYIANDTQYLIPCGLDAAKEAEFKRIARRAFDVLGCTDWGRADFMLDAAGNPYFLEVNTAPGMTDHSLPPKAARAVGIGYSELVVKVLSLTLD
compound,measurement,setting,value
N[C@@H]1CON=C1O [DCS],Ki,[1],0.1 mM
CC(=O)NCc1ccccc1Cl [compound identified in the fragment screen],Ki,[2],10 mM
Nc1ncnc2c1ncn2[C@@H]1O[C@H](COP(=O)(O)OP(=O)(O)OP(=O)(O)O)[C@@H](O)[C@H]1O [ATP],"K i,ATP",[3],3.16 ± 0.59 mM
